Data from patent US20220204479A1, “PYRIMIDINE COMPOUND AND PREPARATION METHOD THEREFOR” (Wuhan Humanwell Innovative Drug Research And Development …, priority 2019, published 2022).
≈ marks a conversion by molar mass, not a printed value. Read-outs that look alike come from different tables or passages of the source.

What was measured:
[1] = Pharmacokinetic test in mice; format: in vivo; conditions: mouse, plasma; male CD-1 mice, oral gavage 10 mg/kg
Description: (§1) For the pharmacokinetic test of mice, male CD-1 mice (20 g to 25 g) were used, and fasted overnight. The mice were orally administered by gavage (10 mg/kg). […] The blood samples were centrifuged at 8,000 rpm at 4° C. for 6 min, and plasma was collected and stored at −20° C. The plasma at each time point was taken and added with an acetonitrile solution containing internal standard in 3 to 5 times the amount, vortexed and mixed for 1 min, and centrifuged at 13,000 rpm at 4° C. for 10 min. The supernatant was collected, added with water in 3 times the amount, and mixed. An appropriate amount of the mixture was taken for LC-MS/MS analysis. The main pharmacokinetic parameters were analyzed using WinNonlin 7.0 software with non-compartmental model.

[2] = molecular target: T1, hERG channels (CHO cell line stably expressing hERG) (Homo sapiens, UniProt Q12809); assay: Inhibitory effect on hERG by full-automatic electrophysiological patch clamp QPatch; conditions: hERG IC50 (μM) divided by ATX enzyme IC50 (nM)
T1 sequence (Q12809 whole entry): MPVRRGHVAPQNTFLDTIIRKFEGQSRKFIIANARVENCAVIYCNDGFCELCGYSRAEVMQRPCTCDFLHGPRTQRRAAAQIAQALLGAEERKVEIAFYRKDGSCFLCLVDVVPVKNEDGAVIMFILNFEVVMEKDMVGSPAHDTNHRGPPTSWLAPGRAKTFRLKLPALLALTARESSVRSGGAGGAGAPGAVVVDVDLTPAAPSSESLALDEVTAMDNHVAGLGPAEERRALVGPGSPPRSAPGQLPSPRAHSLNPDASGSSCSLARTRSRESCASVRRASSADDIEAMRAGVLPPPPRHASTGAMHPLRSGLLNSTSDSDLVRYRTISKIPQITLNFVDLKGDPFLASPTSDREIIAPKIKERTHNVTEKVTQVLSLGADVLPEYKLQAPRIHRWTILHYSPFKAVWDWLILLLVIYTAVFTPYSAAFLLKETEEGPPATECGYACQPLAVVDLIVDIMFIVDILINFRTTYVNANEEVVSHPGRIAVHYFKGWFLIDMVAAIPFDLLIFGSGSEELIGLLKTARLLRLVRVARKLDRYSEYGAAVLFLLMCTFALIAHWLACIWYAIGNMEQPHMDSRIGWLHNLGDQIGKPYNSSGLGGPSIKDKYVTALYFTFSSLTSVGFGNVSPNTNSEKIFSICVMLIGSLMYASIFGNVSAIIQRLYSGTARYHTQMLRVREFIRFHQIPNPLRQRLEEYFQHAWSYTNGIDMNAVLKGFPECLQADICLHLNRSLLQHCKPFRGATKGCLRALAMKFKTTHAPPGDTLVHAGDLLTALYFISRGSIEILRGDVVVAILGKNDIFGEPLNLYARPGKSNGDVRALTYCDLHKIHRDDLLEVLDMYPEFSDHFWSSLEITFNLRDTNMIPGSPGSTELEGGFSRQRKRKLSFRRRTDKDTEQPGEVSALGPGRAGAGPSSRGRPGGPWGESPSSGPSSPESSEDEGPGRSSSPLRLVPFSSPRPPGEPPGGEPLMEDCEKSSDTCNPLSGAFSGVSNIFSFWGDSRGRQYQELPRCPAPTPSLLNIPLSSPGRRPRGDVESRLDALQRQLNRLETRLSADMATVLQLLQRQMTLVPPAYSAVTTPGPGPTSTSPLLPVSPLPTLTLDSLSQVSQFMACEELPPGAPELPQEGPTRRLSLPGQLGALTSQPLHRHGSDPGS
Description: (§4) Full-automatic electrophysiological patch clamp QPatch was used to detect the inhibitory effect of compounds on hERG. Cells used in this test were CHO cell line transfected with cDNA of hERG and stably expressing hERG channels (provided by Sophion Bioscience, Denmark), and the cell passage number was P24. The cells were cultured in a medium containing the following components (all purchased from Invitrogen): Ham's F12 medium, inactivated fetal bovine serum (10% (v/v)), hygromycin B (100 μg/ml), and Geneticin (100 μg/ml). CHO hERG cells were grown in a petri dish containing the above-mentioned medium and cultured in an incubator at 37° C. and containing 5% CO2.
(§5) The test compound was prepared into a 10 mM stock solution in DMSO solvent, the compound was diluted to 3 mM, 1 mM, 0.3 mM, and 0.1 mM with DMSO, and then the compound was diluted to 30 μM, 10 μM, 3 μM, 1 μM, 0.3 μM and 0.1 μM with the extracellular fluid, so that except that the final concentration of DMSO in the 30 μM compound was 0.3%, the final concentration of DMSO in compound solutions of all other concentrations was 0.10%.
(§6) The CHO hERG cells, after being digested and resuspended, were added to the full-automatic QPatch system (Sophion, Denmark), and subjected to a test according to the following preset procedure.
(§7) After reaching the ruptured whole cell configuration state in the initial stage, the whole cell current was recorded at room temperature (about 25° C.) for at least 120 seconds in order to achieve stability. The stable cells were selected for the test. During the whole test, the cells were clamped at a voltage of −80 mV, the cell clamp voltage was depolarized to +20 mV to activate the hERG potassium channels, and after 2.5 seconds, the cell clamp voltage was at −50 mV to eliminate inactivation and generate outward tail current. The peak tail current was used as the value of the hERG current. The voltage mode described above was applied to the cells for electrophysiological test every 15 seconds. An intracellular liquid containing 0.1% dimethyl sulfoxide (solvent) was added to the cells to establish a baseline, and then the current was allowed to stabilize for 3 min. After the compound solution was added, the cells were kept in the test environment until the effect of the compound reached a steady state or until reaching 4 min. In the test experiments with different concentration gradients of the compound, the compound was added from low to high concentration to the clamped cells. After the compound test was finished, the cells were washed with the extracellular fluid until the current returned to a stable state. The test data was analyzed by Qpatch analysis software provided by Sophion, Excel, and Graphpad Prism, etc.

[3] = Human liver microsome stability test; conditions: for Remaining percentage (%) of compound after incubation for 30 min: NADPH, 37° C.; for half-life at 1 µM: human
Description: The human liver microsome stability test was performed by incubating the compound and human liver microsomes in vitro for detection. First, the test compound was prepared into a 10 mM stock solution in DMSO solvent, and then the compound was diluted to 0.5 mM with acetonitrile. Human liver microsomes (Corning) were diluted with PBS and prepared as a microsome/buffer solution, which was used to dilute the 0.5 mM compound solution into a working solution. […] A deep-well multi-well plate was taken, 30 μL of the working solution and 15 μL of pre-warmed NADPH solution (6 mM) were sequentially added to each well to initiate a reaction, and the reaction was incubated at 37° C. […] After centrifugation, the supernatant was collected, and added with purified water in a ratio of 1:1 to perform LC-MS/MS detection. […] T1/2 was calculated by using Excel.

[4] = Pharmacokinetic test in rats; format: in vivo; conditions: male SD rats, oral gavage 10 mg/kg
Description: as §1, with “rats, 3” for “mice,”, “SD rats (180-240” for “CD-1 mice (20 g to 25”, “rats” for “mice”

[5] = molecular target: T2, ATX enzyme in human plasma (Homo sapiens, UniProt Q13822); assay: Inhibition of activity of ATX enzyme in human plasma (LPA18:2 formation, LC-MSMS); format: biochemical; conditions: for inhibitory effect on ATX enzyme in human plasma compared with control compounds 1 and 2: comparison in words; for IC50: human plasma, 37° C., 3 h, LPA18:2 formation, read-out: IC50, inhibitory effect on activity of ATX enzyme in human plasma
T2 construct: Whole blood was collected from healthy volunteers and anticoagulated with heparin; from tissue; host or cells: human plasma (heparin) from healthy volunteers
Description: Whole blood was collected from healthy volunteers and anticoagulated with heparin. The blood collection tubes were centrifuged at 3,000 rpm for 10 min, and the plasma was taken and stored at −80° C. for use.
The compound was serially diluted with DMSO according to the conventional concentration requirements, then 3 μL of each of the diluted compound solutions was added to a 96-well plate, and 147 μL of PBS was added to each well containing 3 μL of the compound solution. After mixing homogenously, 50 μL of the mixture was taken out and added to a new 96-well plate. The human plasma was taken out from the −80° C. refrigerator and thawed through rapid shaking in a 37° C. water bath. 50 μL of the human plasma was taken and added to the 96-well plate containing 50 μL of the diluted compound (the final system contained 1% DMSO). The group without the compound was set as the positive group. The 96-well plate was shaken and mixed uniformly, and incubated at 37° C. for 3 h. A blank group was also provided, and the plasma of the blank group was stored at −80° C. The blank group is provided to determine the baseline concentration of endogenous LPA.
After the incubation was finished, the blank group was thawed on ice and transferred to an incubation plate. Excess acetonitrile containing the internal standard LPA17: 0 was added to the incubation plate to precipitate the plasma protein. After vortex centrifugation, the supernatant was taken and diluted, and a peak area of LPA18: 2 and a peak area of internal standard LPA17: 0 were detected using LC-MSMS mass spectrometry.
(§2) A ratio of the peak area of LPA18: 2 to the peak area of internal standard LPA17: 0 was calculated, and a formation inhibition rate of LPA18: 2 was calculated according to the following formula:
(§3) Inhibition rate (%)=100−(compound group with different concentrations−blank group)/(positive group−blank group)*100
According to the inhibition rates of different concentrations of the compound, the IC50 value of the compound for inhibiting activity of ATX enzyme in human plasma was calculated.

[6] = Pharmacokinetic test in canines; format: in vivo; conditions: dog, plasma; male beagle dogs, oral gavage 5 mg/kg
Description: as §1, with “rats, 3” for “mice,”, “SD rats (180-240” for “CD-1 mice (20 g to 25”, “rats” for “mice”
For the pharmacokinetics test of canines, 3 male beagle dogs (8 to 10 kg) were used, and fasted overnight. The dogs were orally administered by gavage (5 mg/kg). The rest of the operation is the same as the pharmacokinetic test in rats.

[7] = molecular target: T3, autotaxin (ATX) enzyme (Homo sapiens, UniProt Q13822); assay: Autotaxin (ATX) enzyme activity inhibition test (Cayman Autotaxin Inhibitor Screening Assay Kit); format: biochemical; conditions: 37° C., 30 min, OD405, read-out: IC50, inhibitory effect on ATX enzyme activity
T3 construct: purchased Cayman 700580
Description: The inhibitory effects of the compounds on the autotaxin enzyme were detected using the Autotaxin Inhibitor Screening Assay Kit (Cayman, 700580). […] Subsequently, the 8 concentrations were diluted with Autotaxin Assay buffer (1×) provided in the kit into 19× compound working solutions (DMSO content was 1.9%). The Autotaxin Assay Reagent (10×) was taken out and diluted by 10 times with Autotaxin Assay Buffer (1×). The Autotaxin Substrate was taken out, dissolved by adding 1.2 mL of Autotaxin Assay Buffer (1×), mixed evenly and let stand by at room temperature. In a 96-well plate, 150 μL of Autotaxin Assay Buffer (1×), 10 μL of the prepared and diluted 19× compound working solution, 10 μL of Autotaxin Assay Reagent (1×), and 20 μL of the dissolved Autotaxin Substrate were added to each of the wells for each concentration, and homogenously mixed. The 96-well plate was shaken in a constant temperature shaker at 37° C. and incubated in the dark for 30 min, and then the plate was taken out and placed on a microplate reader to read OD405.

[8] = molecular target: T4, ATX enzyme in rat plasma (Rattus norvegicus, UniProt Q64610); assay: Inhibition of activity of ATX enzyme in rat plasma (LPA18:2 formation, LC-MSMS); format: biochemical; conditions: for inhibitory activity on ATX enzyme in rat plasma compared with control compounds 1 and 2: comparison in words
T4 construct: Whole blood was collected from rats and anticoagulated with heparin; from tissue; host or cells: rat plasma (heparin)
Description: Whole blood was collected from rats and anticoagulated with heparin. The blood collection tubes were centrifuged at 3,000 rpm for 15 min, and the plasma was placed on ice for use.
The compound was serially diluted with DMSO: 30% ACN=1:19 according to the conventional concentration requirements, and then placed on ice. 147 μL of plasma, which was placed on ice, was added to a 96-well plate, and then 3 μL of each of the gradient solutions of the compound (finally 1[…] DMSO) was added. A group containing none of the compounds was set as the positive group. The 96-well plate was mixed uniformly, and incubated at 37° C. for 3 h. In addition, a blank group was also provided. At the beginning of the incubation, the plasma of blank group was added to with excessive acetonitrile containing the internal standard LPA17: 0 to precipitate the plasma protein, vortexed to mix, and stored at 4° C. The blank group was provided to determine the baseline concentration of endogenous LPA.
A peak area of LPA18: 2 and a peak area of internal standard LPA17: 0 were detected using LC-MSMS mass spectrometry.
as §2, §3
According to the inhibition rates of different concentrations of the compound, the IC50 value of the compound for inhibiting activity of ATX enzyme in rat plasma, was calculated.

[9] = molecular target: T1, hERG channels (CHO cell line stably expressing hERG); assay: cell-based
Description: as §4, §5, §6, §7

[10] = Thermodynamic solubility test; format: physicochemical; conditions: thermodynamic from solid
Description: The compound was accurately weighed, and the prepared phosphate buffer (pH 7.4), FeSSIF solution (pH 5.8) and FaSSGF solution (pH 1.6) were added to prepare a solution with a concentration of 4 mg/mL, which was shaken at 1,000 rpm for 1 hour, and then incubated overnight at room temperature. After the incubation, the solution was centrifuged at 12,000 rpm for 10 min to remove undissolved particles, and the supernatant was transferred to a new centrifuge tube. The supernatant was diluted appropriately, then added with an acetonitrile solution containing the internal standard, and quantified using a standard curve prepared with the same matrix.

[11] = rat plasma, 37° C., 3 h, LPA18:2 formation, read-out: IC50, inhibitory effect on activity of ATX enzyme in rat plasma

SMILES	AUC(0-t) [1]	Cmax [1]	Tmax [1]	hERG IC50/ATX IC50 [2]	Remaining percentage (%) of compound after incubation for 30 min ([3]; human liver microsomes)	Tmax ([4]; Sprague-Dawley, rat, plasma)	inhibitory effect on ATX enzyme in human plasma compared with control compounds 1 and 2 [5]	IC50 [5]	AUC(0-t) [6]	Cmax [6]	Tmax [6]	IC50 [7]	inhibitory activity on ATX enzyme in rat plasma compared with control compounds 1 and 2 [8]	IC50 [8, 11]	IC50 [9]	half-life at 1 µM ([3]; microsomes)	further results
O=C(c1cnc(NC2Cc3ccccc3C2)nc1)N1CCC(COCc2cn[nH]n2)CC1 [Compound I-1, (4-(((2H-1,2,3-triazol-4-yl)methoxy)methyl)piperidin-1-yl)(2-((2,3-dihydro-1H-inden-2-yl)amino)pyrimidin-5-yl)methanone]	2390 ng·h/mL	1860 ng/mL	25.2 min	7.93/2.05 = 3.87	85.6%	30 min	higher inhibitory effect on ATX enzyme in human plasma than the control compounds 1 and 2	8.73 nM	17600 ng·h/mL	3670 ng/mL	70.2 min	2.05 nM	higher inhibitory activity on ATX enzyme in rat plasma than the control compounds 1 and 2	6.49 nM	7930 nM	–	half-life at 1 µM ([3]; human liver microsomes): 99 min; AUC(0-t) ([4]; Sprague-Dawley, rat, plasma, read-out: AUC0-t): 5720 ng·h/mL; Cmax ([4]; Sprague-Dawley, rat, plasma, read-out: Cmax): 3180 ng/mL
O=C(c1cnc(NC2Cc3ccccc3C2)nc1)N1CC2(CC(OCc3c[nH]nn3)C2)C1 [Compound I-9, (6-((1H-1,2,3-triazol-4-yl)methoxy)-2-azaspiro[3.3]heptan-2-yl)(2-((2,3-dihydro-1H-inden-2-yl)amino)pyrimidin-5-yl)methanone]	4590 ng·h/mL	3870 ng/mL	19.8 min	13.4/1.43 = 9.37	95.5%	–	higher inhibitory effect on ATX enzyme in human plasma than the control compounds 1 and 2	2.74 nM	9410 ng·h/mL	2090 ng/mL	70.2 min	1.43 nM	higher inhibitory activity on ATX enzyme in rat plasma than the control compounds 1 and 2	2.83 nM	13400 nM	242 min	Tmax ([4]; Sprague-Dawley, rat, in vivo): 25.2 min; AUC(0-t) ([4]; Sprague-Dawley, rat, in vivo, read-out: AUC0-t): 1410 ng·h/mL; Cmax ([4]; Sprague-Dawley, rat, in vivo, read-out: Cmax): 973 ng/mL
O=C(COCCc1cnn[nH]1)N1Cc2cnc(NC3Cc4ccccc4C3)nc2C1 [Control compound 1, reference compound]	2570 ng·h/mL	1500 ng/mL	15 min	–	41.2%	25.2 min	–	–	10100 ng·h/mL	2390 ng/mL	60 min	–	–	–	6690 nM	24.1 min	AUC(0-t) [4]: 4874 ng·h/mL; Cmax [4]: 2591 ng/mL; solubility ([10]; FaSSGF solution, fassgf or other biorelevant, FaSSGF pH 1.6, overnight at room temperature, read-out: Solubility, FaSSGF (pH 1.6)): 66.5 µg/mL (≈ 164 µM); solubility ([10]; FeSSIF solution, FeSSIF pH 5.8, overnight at room temperature, read-out: Solubility, FeSSIF (pH 5.8)): 18.3 µg/mL (≈ 45.1 µM); solubility ([10]; phosphate buffer (PBS), aqueous buffer, PBS pH 7.4, overnight at room temperature, read-out: Solubility, PBS (pH 7.4)): 6.3 µg/mL (≈ 15.5 µM); IC50 [8]: 13.6 nM
